Data taken from patent publication US10233195B2, “Anti-fibrotic pyridinones” (InterMune, Inc., priority 2014, dated 2019).

Legend:
[1] = tested on: Fibroblasts (primary human lung and dermal, HFL-1, 3T3 etc); assay: Cell proliferation assay (BrdU incorporation); format: cell-based; settings: HFL1, stimulant (LPA, TGFb, serum etc), 50% inhibition of the increase of BrdU incorporation
In short: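 Serum-starved (24-48 h) fibroblasts pretreated with compound 0-30 min, then stimulated (LPA, TGFb, serum etc) for 16-24 h before BrdU, labelled a further 8 h. BrdU incorporation read by ELISA at 450 nm; IC50 taken as 50% inhibition of the stimulant-induced increase over unstimulated wells.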

[2] = tested on: TGF-b induced Endothelin-1 production; assay: ET-1 assay: inhibitory effect on TGF-b induced endothelin-1 production; format: cell-based; settings: Homo sapiens, Fibroblast; fibroblasts, stimulant (TGFb, serum, LPA etc), ET-1 in media by ELISA, 4-parameter fit
In short: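 Fibroblasts (primary human lung/dermal, HFL-1, 3T3) serum-starved 0-48 h, preincubated ~30 min with compound, then stimulated (TGFb, serum or LPA) for 16-48 h. Secreted ET-1 measured by ELISA; EC50 from 4-parameter logistic fit, with CC50 from ATPlite in the same wells.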

## CCOc1ccc(-n2cc(-c3cn[nH]c3)c(C)cc2=O)c(C)c1 [Compound 219]
[1]
  IC50: > 200 µM
[2]
  EC50: 50 to 200 µM

## Cc1cc(=O)n(-c2ccc(OC(F)(F)F)cc2)cc1-c1ccc2c(c1)OCCO2 [Compound 201]
[1]
  IC50: < 50 µM
[2]
  EC50: 50 to 200 µM

## Cc1cc(=O)n(-c2ccc(OC(F)(F)F)cc2)cc1-c1ccc(-c2cncs2)cc1 [Compound 206]
[1]
  IC50: < 50 µM
[2]
  EC50: 50 to 200 µM
